Assay results taken from patent publication US7635722B1, “Chemical induced intracellular hyperthermia” (priority 1998, dated 2009).

Columns and labels:
[1] = system: tumors and normal fibroblasts; details: many tumors and normal fibroblasts treated with DNP; cited from earlier work
[2] = system: hepatitis C virus; test: DNP with interferon-alpha, chronic hepatitis C (Example 10); assay type: in vivo, human
Protocol: Pretreatment protocol: each evening prior to treatment the patient was instructed not to eat after 7 pm and dress in cotton clothes. Approximately 6 hours prior to intravenous DNP administration they were to be given 1.5 million units of subcutaneous interferon-alpha every 3rd day. Repeat blood work, including CBC and platelet count, AST, ALT, and hepatitis C-RNA levels would be initially obtained at 48 hours and weekly thereafter. No efforts were to be made to prevent body heat loss. A single intravenous line was placed with a 21-gauge interacath. Heart rate, rectal thermistor, and VO2 monitoring was conducted during therapy as outlined.
Treatment procedure: the patient presented themself for outpatient treatment and was given a subcutaneous dose of 1.5 million units of interferon-alpha. Approximately 6 hours thereafter, at 1 pm, a baseline VO2 recording of 5 minutes was 160 cc/min. They were infused with 1 mg/kg DNP over a 2 minute period. At 20 minutes, their VO2 increased and stabilized at approximately 210 cc/min. A second dose of 1 mg/kg DNP was infused and the VO2 peaked 20 minutes later at 250 cc/min. An additional dose of 2.0 mg/kg DNP was given 30 minutes following the second dose. […] The patient's rectal temperature increased and never exceeded 1.3° C. above their normal baseline. Two hours after their last dose of DNP, their VO2 declined to 280 cc/min. An additional 2 mg/kg dose of DNP was administered. The patients VO2 increased and stabilized 20 minutes thereafter to a level of 420 cc/min. […] Throughout treatment the patient was permitted to drink fluids ad libitum. […] The 5 day treatment protocol was repeated after a 2 day “DNP rest period”. This regimen was repeated times 3. Subcutaneous interferon-alpha was administered for a total of 10 weeks.

[3] = system: HIV; test: DNP hyperthermia, HIV disease (Example 2); assay type: in vivo, human
Protocol: Pretreatment protocol: all medications were stopped 2 weeks prior to treatment. The patient refused taking diazepam, placement of a Foley catheter and oxygen face mask. They dressed themself into a dry cold water immersion suit (Stearns, ISS-590I, Universal Adult) designed to prevent heat loss and modified for easy placement of physiologic monitors. Equipment for measurement of heart rate, temperature, carbon dioxide production and Kcal of heat produced were conducted as outlined in Example 1. An oral breathing tube was used to measure V02 from room air. Urine output was measured when the patient voluntarily urinated through a “Texas” catheter (superficial condom tightly fitted around the head of the penis with tubing connected to urine collection bag). The patient was informed that hyperthermia would be administered as tolerated by their stamina and monitored clinical parameters, not to exceed 5 hours, on a daily or every other day basis, for a total of 5 sessions.
Treatment procedure: Baseline reading for 5 minutes established an average V02 of 300 cc/min. An initial dose of 2 mg/kg of DNP was administered over a 2 minute period. V02 increased and stabilized at 15 minutes at 340-380 cc/min. An additional 2 mg/kg DNP infusion was given, the V02 increased and stabilized at 610-630 cc/min. […] Norepinephrine bitartrate (Levophed) was given IV drip at a dose of 1 microgram/min. and adjusted to maintain blood pressure at 130/80. Approximately 1 minute after initiating the vasopressor, heart rate increased from 90 to 100 and V02 to 0.85 liters/min. […] V02 was maintained at 1.0 liters/min. by lowering or increasing the dose of norepinephrine. An additional infusion of 1 mg/kg DNP was given at hour 4 to correct a dropping V02. On occasions when the core temperature increased above 41.6° C., a lower extremity was exposed for evaporative heat loss. […] The protocol was repeated consecutively for 5 days without the additional use of vasopressors.

Q: With `O=[N+]([O-])c1ccc(O)c([N+](=O)[O-])c1` [DNP, 2,4-dinitrophenol] as the compound, how does the “increase in heat production” value [1] read?
A: 83%

Q: What about the “increase in oxygen consumption” value [1] of the same compound?
A: 36%

Q: And the ALT ([2]; 18 months after therapy)?
A: normalization

Q: And the HCV viral genome ([2]; 18 months after therapy)?
A: remained cleared from their bloodstream

Q: And the “decrease of hepatitis C-RNA viral load” value ([2]; after 48 hours, DNP with interferon-alpha)?
A: approximately 2 logs

Q: And the “increase of alanine transaminase (ALT) levels” value ([2]; at 48 hours, elevated until week 3)?
A: 7 fold

Q: What about the “increase of alkaline phosphatase levels” value ([2]; at 48 hours, pretreatment levels at day 7) of the same compound?
A: 2 fold

Q: And the “CBC, bilirubin, and blood urea nitrogen (BUN)” value ([2]; during treatment)?
A: remained within normal limits

Q: What about the “further decrease of viral load” value ([2]; over the next 5 days) of the same compound?
A: an additional log

Q: What about the HCV-RNA ([2]; week 2 and thereafter) of the same compound?
A: undetectable

Q: And the lymphadenopathy ([3]; 2 weeks post-treatment)?
A: resolved

Q: What about the “HIV RNA” value ([3]; 4, 6 and 12 weeks post-treatment) of the same compound?
A: non-detectable

Q: What about the “CD4+ T cell lymphocyte counts” value ([3]; by week 4, stable at week 6 and 12, pretreatment 250/mm^3) of the same compound?
A: 380-420 cells/mm^3

Q: And the viral load ([3]; immediately after treatment day 5, pretreatment 400,000 copies/ml)?
A: 50,000 HIV-RNA copies/ml
